Some test systems named below: HCT-116 colon; MALME-3M melanoma; COLO 205 colon; K-562 leukemia; M19-MEL melanoma; HL-60(TB) leukemia; OVCAR-4 ovarian; HS 578T breast; DU-145 prostate.
Common to all, as to assay: NCI anticancer screen, dose series, 48 h

Several values for one entry are separate records, joined by “and”; a condition that tells them apart may be missing. Identical values can stand only once.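 Cells were grown in 96-well plates and exposed to each compound for 48 hours at five concentrations; endpoints were interpolated linearly between bracketing concentrations, or set to the highest concentration if not reached. GI50 is the concentration that inhibits growth by half. TGI: total growth inhibition.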

As for `c1ccc(NC[Si]23OCCN(CCO2)CCO3)cc1`, the TGI with HCT-116 colon, in the experiment on MALME-3M melanoma, with COLO 205 colon, with K-562 leukemia and in the experiment with M19-MEL melanoma was above 100 µM in each case.
For the compound `COc1ccc2[nH]c3c(=O)[nH]ncc3c2c1`, the TGI in the experiment on HCT-116 colon, in the experiment with MALME-3M melanoma, in the experiment on COLO 205 colon, in the experiment on K-562 leukemia, with HL-60(TB) leukemia and in the experiment on M19-MEL melanoma was above 100 µM throughout. Also, the TGI in the experiment with OVCAR-4 ovarian is above 100 µM.
As to `COc1cc([C@H]2c3[nH]c4ccccc4c3C[C@H]3COC(=O)N32)cc(OC)c1O`, the TGI with HS 578T breast was 44.7 µM; in the experiment on HCT-116 colon, 51.2 µM; in the experiment with MALME-3M melanoma, above 100 µM; in the experiment on COLO 205 colon it was 37.5 µM; in the experiment with K-562 leukemia, above 90.3 µM; in the experiment on HL-60(TB) leukemia, 14.5 µM. Also, the TGI in the experiment with M19-MEL melanoma and in the experiment with OVCAR-4 ovarian was above 100 µM in each case.
As to `O=[N+]([O-])C1C2C=CC(C2)[C@H]1c1ccc(Cl)cc1Cl` (stereo partly specified), the TGI in the experiment on HCT-116 colon was above 100 µM; with MALME-3M melanoma, above 100 µM; in the experiment on K-562 leukemia, above 100 µM; in the experiment with HL-60(TB) leukemia it was 53.2 µM; in the experiment on M19-MEL melanoma, above 100 µM.
For the compound `O=C(Nc1ccccc1O)c1ccc(CNC(=O)c2ccsc2Nc2ccnc(C(F)(F)F)c2)cc1`, the GI50 was 2710 nM with HS 578T breast; 1340 nM with HCT-116 colon; 1700 nM with MALME-3M melanoma; 3.4 µM in the experiment on COLO 205 colon; 1620 nM in the experiment on K-562 leukemia; 2120 nM in the experiment on DU-145 prostate. The figures for the GI50 with HL-60(TB) leukemia and in the experiment on OVCAR-4 ovarian were 2860 nM and 1740 nM, respectively. For the same compound, the TGI in the experiment on HS 578T breast was 16.2 µM; with HCT-116 colon, 3.36 µM; in the experiment with MALME-3M melanoma it was 6.65 µM; in the experiment on COLO 205 colon it was 13.4 µM; in the experiment on K-562 leukemia it was above 100 µM; in the experiment with DU-145 prostate it was 5.67 µM. Besides, the results for the TGI in the experiment with HL-60(TB) leukemia and in the experiment with OVCAR-4 ovarian were 9.32 µM and above 100 µM, respectively.
On to `CCCCCCCCCCCCCCCCS(=O)(=O)c1ccc(NN)cc1`, for which the TGI in the experiment on HS 578T breast, in the experiment on HCT-116 colon, in the experiment with MALME-3M melanoma, in the experiment on COLO 205 colon, with K-562 leukemia and with DU-145 prostate was above 10 µM in each case. Also, the figures for the TGI with HL-60(TB) leukemia and with OVCAR-4 ovarian were 6.17 µM and above 10 µM, respectively.
Turning to `CC[C@H](C)[C@H](NC(=O)[C@H]1CCCCN1C)C(=O)N(C)[C@H](C[C@@H](OC(C)=O)c1nc(C(=O)N[C@@H](Cc2ccccc2)C[C@H](C)C(=O)OC)cs1)C(C)C`, the GI50 in the experiment with HS 578T breast was 0.504 nM and 2.5 nM; in the experiment with HCT-116 colon it was 0.357 nM; in the experiment with MALME-3M melanoma, 442 nM; in the experiment on COLO 205 colon it was 0.000208 µM and < 0.0025 µM; with K-562 leukemia it was 0.278 nM and 2.5 nM; in the experiment on DU-145 prostate it was 0.208 nM. Further, the GI50 with HL-60(TB) leukemia was 0.249 nM and < 2.5 nM; with OVCAR-4 ovarian it was 4.79 nM and 2.5 nM. Also, the TGI is 6.9 µM in the experiment on HS 578T breast; above 25 µM in the experiment with MALME-3M melanoma; 0.00119 µM and < 0.0025 µM with COLO 205 colon; above 25 µM in the experiment with K-562 leukemia; 0.000743 µM and < 0.0025 µM in the experiment with HL-60(TB) leukemia; above 25 µM in the experiment with OVCAR-4 ovarian.
Take `COc1ccc(-c2cc(/C=C/C(=O)c3cc(OC)c(OC)c(OC)c3)[nH]n2)cc1OC`: the GI50 in the experiment on HS 578T breast is 2910 nM; in the experiment on HCT-116 colon it was 425 nM; in the experiment on MALME-3M melanoma, 2320 nM; with COLO 205 colon, 1.75 µM; in the experiment on K-562 leukemia, 731 nM; with DU-145 prostate it was 1830 nM. For the same compound, the GI50 in the experiment with HL-60(TB) leukemia is 1690 nM; in the experiment with OVCAR-4 ovarian, 1620 nM. In addition, the TGI in the experiment with HS 578T breast was 22.2 µM; with HCT-116 colon it was 1.79 µM; in the experiment with MALME-3M melanoma it was 6.19 µM; in the experiment on COLO 205 colon, 3.57 µM; in the experiment with K-562 leukemia it was 9.71 µM; in the experiment on DU-145 prostate it was 4.12 µM. In addition, the values for the TGI with HL-60(TB) leukemia and with OVCAR-4 ovarian were 14.8 µM and 7.17 µM, respectively.
On to `COc1cc2nnn3c4ncccc4c(N=O)c3c2cc1OC`, for which the GI50 in the experiment on HS 578T breast is 4820 nM; with HCT-116 colon, 118 nM; with MALME-3M melanoma, 3040 nM; with COLO 205 colon it was 8.21 µM; in the experiment with K-562 leukemia, 282 nM; with DU-145 prostate it was 3020 nM. In addition, the GI50 with HL-60(TB) leukemia is 50.6 nM; with OVCAR-4 ovarian, 3230 nM. Further, the TGI with HS 578T breast was above 100 µM; with HCT-116 colon, above 100 µM; in the experiment on MALME-3M melanoma it was 17.2 µM; with COLO 205 colon, 31.2 µM; in the experiment on K-562 leukemia, above 100 µM; in the experiment on DU-145 prostate it was 12.5 µM. The TGI in the experiment with HL-60(TB) leukemia and with OVCAR-4 ovarian was above 100 µM in each case.
For the compound `CCOCNc1ccc(N2C(=O)/C(=C/c3ccc(N(CC)CC)cc3)N=C2c2ccccc2)cc1`, the GI50 in the experiment on HS 578T breast is 17000 nM; in the experiment on HCT-116 colon, 2400 nM; with MALME-3M melanoma it was 24800 nM; in the experiment on COLO 205 colon, 86.6 µM; in the experiment with K-562 leukemia it was 2870 nM; with DU-145 prostate, above 100000 nM. The GI50 in the experiment with HL-60(TB) leukemia is 25000 nM; with OVCAR-4 ovarian, above 100000 nM. The TGI is above 100 µM with HS 578T breast; 53.4 µM in the experiment with HCT-116 colon; above 100 µM in the experiment on MALME-3M melanoma; above 100 µM in the experiment with COLO 205 colon; above 100 µM in the experiment on K-562 leukemia; above 100 µM in the experiment on DU-145 prostate. Further, the TGI in the experiment with HL-60(TB) leukemia and with OVCAR-4 ovarian was above 100 µM each time.

The record behind these values is PubChem BioAssay (NCI).
